Measured values from US20180118786A1, “NOVEL lNHIBITORS OF THE ENZYME ACTIVATED FACTOR XII (FXIIA)” (ECOLE POLYTECHNIQUE FEDERALE DE LAUSANNE (EPFL), priority 2015, published 2018).
Blank lines part the entries; values can stand above or below the molecule they belong to. Starred links: 1 amine or outer side, 2 acyl side, 3 side chain; linkers in the order of their positions; H or OH if unused. Positions of bridges follow the written chain, without caps; N, C: chain ends. Non-standard residues stand in square brackets, D forms with d. Residues, ends and D or L forms follow the SMILES beside them. TATA = O=C(CC[*:1])N1CN(C(=O)CC[*:2])CN(C(=O)CC[*:3])C1; Phe(4-F) = N[C@@H](Cc1ccc(F)cc1)C(=O)O; β3hR = N=C(N)NCCC[C@H](N)CC(=O)O

Legend:
Plasma stability assay = conditions: human
Procedure: (§6) Peptide (2 μl of 2 mM in H2O) was added to 398 μl human plasma (final peptide concentration was 10 μM in 400 μl final volume). The mixture was incubated in the water bath at 37° C. At 8 different time points (0 h, 30 min, 1 h, 2 h, 4 h, 8 h, 12 h, 24 h and in some cases 48 h) a sample of 30 μl was removed, diluted to 200 μl with the same buffer used for protease inhibition assay (see above) and heat-inactivated for 20 min at 65° C. During this step proteases present in plasma are being inactivated, that would otherwise interfere with the subsequently performed enzymatic assay. […] Before analysis, plasma samples were centrifuged for 5 min at 16′000 g and the supernatant was collected. A twofold dilution series ranging from 0.0005-0.5 μM was prepared. IC50 values were derived from the fitted curve using the equation indicated above. Residual inhibition in % was calculated using the following formula: IC50, 0h/IC50, xh*100 wherein IC50, 0h is the functional strength of the inhibitor at time point 0 and IC50, xh the functional strength of inhibitor after one of the different plasma incubation period mentioned above.
(§7) The activity of the plasma proteases was heat-inactivated by incubation of the samples at 65° C. for 10 minutes.

human β-FXIIa = biological target: T1, human β-FXIIa (Homo sapiens, UniProt P00748); test: Protease inhibition assay with fluorogenic substrate (Example 1); format: biochemical
T1 construct: human β-FXIIa, a naturally occurring proteolytic product of FXIIa comprising only the catalytic domain; purchased Molecular Innovations HFXIIAB
Procedure: The inhibitory activity of bicyclic peptides was determined by incubation with proteases and quantification of their residual activity with a fluorogenic substrate. Final concentration of human b-FXIIa (HFXIIAB; Molecular Innovations) and mouse α-FXIIa (MFXIIA; Molecular Innovations) was 10 nM. Dilutions of peptides were prepared ranging from 0.2-200 mM. Fluorescence intensity was measured with an Infinite M200Pro fluorescence plate reader (excitation at 355 nm, emission at 460 nm; Tecan, Männedorf, Switzerland). The reactions were performed at RT. Sigmoidal curves were fitted to the data using the following dose response equation wherein x=peptide concentration, y=% activity of reaction without peptide, A1=100%, A2=0%, p=1. IC50 values were derived from the fitted curve.
The inhibitory constant Ki was calculated according to the equation of Cheng and Prusoff^29 Ki=/050/(1+([S]0/Km) wherein IC50 is the functional strength of the inhibitor, [S]0 is the total substrate concentration, and Km is the Michaelis-Menten constant.

trypsin [1] = biological target: T2, trypsin (Homo sapiens, UniProt P07477); test: Specificity FXII618 vs CTI, trypsin; format: biochemical
[2] = test system: intrinsic pathway of coagulation; test: aPTT in human plasma (Example 1); format: biochemical
Procedure: (§1) aPTT, PT and FXII coagulant activity (FXII:c) measurements Coagulation times (aPTT, PT) and FXIIa activity were determined in human plasma using an automated blood coagulation analyzer (Sysmex CS-5100, Siemens, Eschborn, Germany) with according to the manufacturer's instructions (Siemens). Extrinsic coagulation was triggered with Innovin® (recombinant human tissue factor, synthetic phospholipids and calcium in stabilized HEPES buffer system; Dade Behring/Simens). Intrinsic coagulation was triggered with Pathromtin* SL (Siemens). Human plasma used in this study was derived from a pool of fresh frozen plasma units provided by the Service Regional Vaudois de Transfusion Sanguine, Switzerland.
(§2) Coagulation times (aPTT, PT) and FXIIa activity were determined, at least in duplicate, in human plasma using an automated blood coagulation analyzer (Sysmex CA-7000) with standard reagents according to the manufacturer's instructions (Siemens Healthcare, Eschborn, Germany). Human plasma used in this study was derived from a pool of fresh frozen plasma units provided by the Service Regional Vaudois de Transfusion Sanguine, Switzerland.

extrinsic pathway = test: PT in human plasma (Example 1); format: biochemical; conditions: 40 μM
Procedure: as §1, §2

FXII = biological target: T3, FXII (Homo sapiens, UniProt P00748); test: FXII coagulant activity (FXII:c) in human plasma; format: biochemical; conditions: 50 μM
T3 construct: from tissue; host or cells: pooled fresh frozen human plasma
T3 sequence (P00748 20-615): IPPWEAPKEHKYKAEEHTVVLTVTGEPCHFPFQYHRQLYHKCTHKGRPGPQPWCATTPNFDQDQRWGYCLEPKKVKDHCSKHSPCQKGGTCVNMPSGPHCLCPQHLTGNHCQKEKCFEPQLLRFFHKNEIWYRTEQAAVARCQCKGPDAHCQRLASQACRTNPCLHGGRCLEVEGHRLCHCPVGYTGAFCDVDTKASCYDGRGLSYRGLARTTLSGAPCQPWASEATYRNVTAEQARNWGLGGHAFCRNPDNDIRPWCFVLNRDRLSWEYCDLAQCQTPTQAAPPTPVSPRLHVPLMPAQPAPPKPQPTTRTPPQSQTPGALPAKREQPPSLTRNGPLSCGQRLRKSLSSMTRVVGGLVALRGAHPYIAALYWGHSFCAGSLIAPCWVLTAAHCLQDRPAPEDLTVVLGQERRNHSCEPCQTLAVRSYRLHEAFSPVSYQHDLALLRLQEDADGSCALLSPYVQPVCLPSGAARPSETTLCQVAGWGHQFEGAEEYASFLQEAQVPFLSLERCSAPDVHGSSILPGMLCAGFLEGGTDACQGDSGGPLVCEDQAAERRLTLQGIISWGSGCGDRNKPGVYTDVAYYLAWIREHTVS
Procedure: as §1, §2

[3] = test system: intrinsic pathway (contact activation); test: Thrombin generation assay by CAT triggered by ellagic acid; format: biochemical, human; conditions: ellagic acid trigger, 20 μg/mL
Procedure: (§3) Thrombin generation was performed as previously described with some modifications.30 In brief, 60 μL platelet poor plasma (PPP), 20 μL FXIIa inhibitor/HA buffer (Hepes 20 mM, NaCl 140 mM, pH 7.4, 5 mg/mL BSA), and 20 μL PPP reagent, PPP LOW reagent, MP reagent or Actin FS (1:170 diluted in HA buffer) were mixed in a 96-well microtiter plate (Immulon 2HB; Thermo Fisher Scientific) and incubated for 15 min at 37° C. Thrombin generation was triggered by the addition of 20 μL of substrate/calcium chloride buffer (FLUKA) at 37° C. Samples were tested in triplicate for each condition. Fluorogenic thrombin substrate hydrolysis was measured every 20 s for 120 min on a microplate fluorometer (Fluoroskan Ascent FL; Thermo Fisher Scientific) with a 390/460-nm (excitation/emission) filter set. Data analysis was performed on the Thrombinoscope software (Synapse By). PPP reagent (TF […], PL 4 μM), PPP LOW reagent (TF […], PL 4 μM), MP reagent (PL 4 μM), thrombin calibrator and FLUKA were purchased from Synapse By.

[4] = test system: thrombin generation in platelet poor plasma; test: Thrombin generation assay by CAT, TF-triggered or without trigger; format: biochemical, human; set-up: lag time: unit not given here
Procedure: as §3
Venous blood was collected from healthy volunteers by antecubital venipuncture with 19-gauge needles in 3,2% (w/v) citrated Monovette plastic tubes. In order to minimize contact activation, the first collection tube containing EDTA was discarded according to standard procedures. […] Blood was then processed to PPP by an initial centrifugation step at 2,000 g for 5 min followed by a second centrifugation step at 10,000 g for 10 min. Plasma aliquots were stored at −80 until analysis.

FXII activity = biological target: T4, FXII activity (Mus musculus, UniProt Q80YC5); test: Inhibition of FXII activity in vivo; set-up: species or system BALB/c mice; conditions: mice
T4 construct: from tissue; host or cells: plasma of BALB/c mice after injection
T4 sequence (Q80YC5 20-597): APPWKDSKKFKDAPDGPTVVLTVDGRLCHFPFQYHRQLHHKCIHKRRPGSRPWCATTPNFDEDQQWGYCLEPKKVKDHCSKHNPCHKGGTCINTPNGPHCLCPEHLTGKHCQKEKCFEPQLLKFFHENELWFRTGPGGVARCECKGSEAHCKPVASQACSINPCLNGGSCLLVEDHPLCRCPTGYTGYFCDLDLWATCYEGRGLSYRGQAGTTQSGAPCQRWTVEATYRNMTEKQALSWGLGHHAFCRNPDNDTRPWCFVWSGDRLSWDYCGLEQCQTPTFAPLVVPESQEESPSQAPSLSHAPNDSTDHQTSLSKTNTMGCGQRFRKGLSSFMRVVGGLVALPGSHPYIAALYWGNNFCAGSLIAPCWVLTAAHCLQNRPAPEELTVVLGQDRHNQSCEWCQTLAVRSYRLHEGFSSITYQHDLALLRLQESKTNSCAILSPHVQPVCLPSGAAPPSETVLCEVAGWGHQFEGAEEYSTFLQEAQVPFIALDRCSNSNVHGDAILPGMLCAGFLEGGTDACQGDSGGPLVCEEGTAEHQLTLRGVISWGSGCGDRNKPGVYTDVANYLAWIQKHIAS
Procedure: Female BALB/c mice were anesthetized with 125 mg/kg pentobarbital. […] Five minutes later, blood was collected from the vena cava at a 1:9 blood to citrate ratio. Plasma was prepared by centrifugation at 2,400 g 10 minutes at RT. FXIIa activity was assessed as described above.

[5] = test system: thrombin generation in platelet poor plasma; test: Thrombin generation assay by CAT, TF-triggered or without trigger; format: biochemical, human; conditions: 1 pM TF, 100 μg/mL inhibitor
in vitro = conditions: human, plasma
Procedure: as §6, §7

[6] = test system: structurally related or functionally important proteases; test: Specificity testing (Example 2), other proteases; format: biochemical, human
Procedure: (§4) For the specificity testing the following final concentrations of human serine proteases were used: tPA (Molecular Innovations) 7.5 nM, uPA (Molecular Innovations) 1.5 nM, factor XIa (Innovative Research, Novi, Mich., U.S.) 6 nM, PK (Innovative Research) 0.25 nM, thrombin (Molecular Innovations) 1 nM, plasmin (Molecular Innovations) 2.5 nM, trypsin (Molecular Innovations) 0.05 nM, factor VIIa (Haematologic Technologies Inc.) 50 nM and factor Xa (Haematologic Technologies Inc,) 6 nM.
(§5) Dilutions of peptides were prepared ranging from 0.04 to 40 μM.

[7] = test system: intrinsic coagulation pathway; test: aPTT in human plasma (Example 2); format: biochemical
Procedure: Coagulation times (aPTT, PT) were determined in human plasma using a blood coagulation analyzer (STart. Hemostasis coagulation analyzer, Diagnostica Stago). Extrinsic coagulation was triggered with Innovin (recombinant human tissue factor, synthetic phospholipids and calcium in stabilized HEPES buffer system; Dade Behring; Siemens). Intrinsic coagulation was triggered with Pathromtin* SL (Siemens). Pooled normal human plasma used in this study was provided by Innovative research (USA).
The ability to selectively suppress the intrinsic coagulation pathway was assessed in in vitro coagulation assays. Activated partial thromboplastin time (aPTT) and prothrombin time (PT) measure the time to coagulation upon initiation of coagulation either via the intrinsic (aPTT) or the extrinsic pathway (PT). These tests have been performed in human plasma in the presence of different concentrations of FXIIa-inhibitors. Selective FXIIa inhibition is expected to increase aPTT but not PT. […] At a concentration of 5 μM peptide inhibitor no coagulation via the intrinsic pathway occurred within 120 s. Additionally, there was a correlation between inhibitory activity against FXIIa and extent of aPTT prolongation.

trypsin [8] = biological target: T2, trypsin; test: Specificity testing (Example 2), trypsin; format: biochemical; set-up: purchased Molecular Innovations
Procedure: as §4, §5

[9] = absence of extrinsic- or intrinsic-specific trigger, 100 μg/mL inhibitor

SMILES: CC(C)C[C@@H]1NC(=O)[C@H](CCC(N)=O)NC(=O)[C@H](Cc2c[nH]cn2)NC(=O)[C@@H]2CSCCC(=O)N3CN(CN(C3)C(=O)CCSC[C@H](NC(=O)[C@@H](CO)NC(=O)[C@H](N)CCCNC(=N)N)C(=O)N[C@@H](Cc3ccc(F)cc3)C(=O)N[C@@H](CCCNC(=N)N)C(=O)N[C@@H](CC(C)C)C(=O)N3CCC[C@H]3C(=O)N2)C(=O)CCSC[C@@H](C(N)=O)NC(=O)C[C@H](CCCNC(=N)N)NC1=O [JS33-R] (H-[dR][dS]C[Phe(4-F)]RLPCHQL[β3hR]C-NH2; linker 3-8-13 via TATA; N-terminus and C-terminus assumed)
- half-life at 10 μM (Plasma stability assay): 127 h

- more potent than PCK (human β-FXIIa; compared to PCK): around 8 fold
- more potent than inhibitor 44 (human β-FXIIa; compared to small molecule FXIIa inhibitor 44): > 200 fold
- improvement in inhibiting human FXIIa (human β-FXIIa; in comparison to parent FXII516): 8 fold
- inhibition of trypsin (trypsin [1]; at a concentration as high as 1000 nM): no inhibition
- trypsin inhibition weaker compared to CTI (trypsin [1]; compared to CTI): around 100 fold
- FXII coagulant activity (FXII:c) (FXII): < 5%
- PT (FXII activity; 3.5 mg/kg FXII618 combined with 3.5 mg/kg PK128): 7.1 ± 0.2 s
- FXII activity (FXII activity; 3.5 mg/kg FXII618 combined with 3.5 mg/kg PK128 r.o., blood after five minutes): 49.7+/−13.9%
- half-life at 10 μM (in vitro): 3.9 ± 1.9 h
SMILES: CC(C)C[C@@H]1NC(=O)[C@H](CCC(N)=O)NC(=O)[C@H](CCCNC(=N)N)NC(=O)[C@@H]2CSCCC(=O)N3CN(CN(C3)C(=O)CCSC[C@H](NC(=O)[C@@H](N)CCCNC(=N)N)C(=O)N[C@@H](Cc3ccccc3)C(=O)N[C@@H](CCCNC(=N)N)C(=O)N[C@@H](CC(C)C)C(=O)N3CCC[C@H]3C(=O)N2)C(=O)CCSC[C@@H](C(=O)N[C@@H](CCCNC(=N)N)C(N)=O)NC(=O)[C@H](CCCNC(=N)N)NC1=O [FXII618]
- aPTT ([2]; citrated platelet poor plasma, 100 μg/mL inhibitor): > 170 s
- aPTT ([2]; human plasma, 40 μM): > 170 s
- effect on extrinsic pathway (PT) (extrinsic pathway): without affecting the extrinsic pathway
- reduction of endogenous thrombin potential (ETP) [3]: > 90%
- reduction of peak [3]: > 90%
- lag time ([4]; 0.25 pM TF, 100 μg/mL inhibitor): 12.3±0.3
- lag time [4, 9]: 55.8±3.7
- peak [4, 9]: 60.3±0.8
- effect on TF-induced thrombin generation ([4]; high concentration of TF, 100 μg/mL inhibitor): did not affect TF-induced thrombin generation
- thrombin activation ([4]; inhibitor added to whole blood immediately after sampling, no trigger): completely block thrombin activation
- effect on thrombin generation [5]: no significant effect

- half-life at 10 μM (in vitro): 15.5 ± 3.9 h
- selectivity over trypsin (trypsin [8]): 300 fold
SMILES: CC(C)C[C@@H]1NC(=O)[C@H](CCC(N)=O)NC(=O)[C@H](CCCNC(=N)N)NC(=O)[C@@H]2CSCCC(=O)N3CN(CN(C3)C(=O)CCSC[C@H](NC(=O)[C@@H](N)CCNC(=N)N)C(=O)N[C@@H](Cc3ccc(F)cc3)C(=O)N[C@@H](CCCNC(=N)N)C(=O)N[C@@H](CC(C)C)C(=O)N3CCC[C@H]3C(=O)N2)C(=O)CCSC[C@@H](C(=O)N[C@@H](CCCNC(=N)N)C(N)=O)NC(=O)[C@H](CCCNC(=N)N)NC1=O [peptide 73]
- selectivity over other plasma proteases [6]: ≥ 11,000 fold
- inhibition of eight of the ten proteases ([6]; highest concentration tested (40 μM)): less than 20%
- aPTT prolongation compared with peptide 1 [7]: significantly increased aPTT prolongation
